{"source": "patent US20110130383A1", "about": "“Use of Ion Channel Modulators in the Prophylaxis and Treatment of Inflammatory and Immunological Diseases” (LECTUS THERAPEUTICS LIMITED, priority 2006, published 2011)", "origin": "cited, not measured here", "key": {"Kv1.3 channels": {"target": "Kv1.3 channels (Homo sapiens, UniProt P22001)", "sequence (P22001 whole entry)": "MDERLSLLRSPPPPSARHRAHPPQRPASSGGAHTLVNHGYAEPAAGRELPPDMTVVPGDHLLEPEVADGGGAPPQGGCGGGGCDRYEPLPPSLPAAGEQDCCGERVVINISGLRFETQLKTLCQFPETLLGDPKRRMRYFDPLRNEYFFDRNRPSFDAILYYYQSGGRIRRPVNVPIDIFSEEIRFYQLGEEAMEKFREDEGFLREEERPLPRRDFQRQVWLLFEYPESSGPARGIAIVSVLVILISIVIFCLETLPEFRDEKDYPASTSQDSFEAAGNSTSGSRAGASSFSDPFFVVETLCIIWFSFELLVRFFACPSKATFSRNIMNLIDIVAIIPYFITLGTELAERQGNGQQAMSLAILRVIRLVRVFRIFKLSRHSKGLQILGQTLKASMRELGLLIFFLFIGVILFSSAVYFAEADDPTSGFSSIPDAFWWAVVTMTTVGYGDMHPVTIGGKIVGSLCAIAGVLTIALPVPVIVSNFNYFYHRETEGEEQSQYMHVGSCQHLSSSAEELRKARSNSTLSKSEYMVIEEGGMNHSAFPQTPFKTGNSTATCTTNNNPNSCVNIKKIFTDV", "conditions": "inhibition of Kv1.3 channels versus cardiac Kv1.5 channels"}, "[1]": {"conditions": "rats, 28-day, administered by gavage; tissues including those reported to express Kv1.3 channels"}}}
{"molecule": "O=c1ccc2c(OCCCCOc3ccccc3)c3ccoc3cc2o1", "note": "[PAP-1]", "values": [{"measurement": "selectivity over cardiac Kv1.5 channels", "setting": "Kv1.3 channels", "result": 23, "unit": "fold"}, {"measurement": "histopathological changes in tissues examined", "setting": "[1]", "result": "failed to induce any histopathological changes"}]}
